Earlier results, collected in US20200241005A1, “COMPOSITIONS AND METHODS FOR THE DIAGNOSIS AND TREATMENT OF DISEASES OF THE LIVER” (Viscient Biosciences, Inc., priority 2019, published 2020).

Columns and labels:
[1] = tested on: SLC1A1; conditions: SLC1A1 vs SLC1A2 and SLC1A3
[2] = tested on: SLC1A1; conditions: astroglial cells; unknown mechanism

| SMILES | preference for SLC1A1 over its most related homologs SLC1A2 and SLC1A3 [1] [fold] | effect on SLC1A1 expression [2] |
| --- | --- | --- |
| N[C@H](C(=O)O)[C@H](Cc1ccccc1)C(=O)O [L-beta-benzyl-aspartate] | 10 | – |
| Nc1nc2ccc(OC(F)(F)F)cc2s1 [Riluzole] | – | enhances SLC1A1 expression |
